Drawing on patent US10865188B2, “Dibenzo azepine compounds and their use in the treatment of otic diseases and disorders” (Pipeline Therapeutics, Inc., priority 2015, dated 2020), this text covers IC50 for one compound.

Structures are written as SMILES.

The assay has as its system HES1. The experiment in a line: Human neural stem cell assay, Hes1 gene expression (real-time PCR). In kind it is cell-based. The following applies: human neural stem cells, 7 point CRC, read-out: hNSC HES1 IC50. As for the experimental part:
Neural stem cells (NSC) were derived from embryonic stem cells using a published protocol (Yuan et al., Mar. 2, 2011, PLoS ONE, 6(3):e17540). Cells were sorted and characterized at passage 3 and were expanded. Cells were then frozen at passage 5. Cells were maintained in NSC media (DMEM/F12, N2 (1×), B27(1×) (Invitrogen), and Pen/Strep (1×) (Life Technologies) with 20 ng/ml bFGF (BD Bioscience/Corning)). On day 1, cells were plated in 96 well plates that have been previously coated with poly-ornithin and laminin, 60,000 cells/well in 100 μl of media. On day 2, spent media was removed, and 180 μl of fresh media was added to the cells. Later that same day (day 2), cells were treated with 20 μl of NSC media containing test compounds (7 point CRC). On day 3, spent media was removed and 140 μl of RLT/bME was added to the cells. RNA was extracted using the QiaCube (Qiagen®, Germantown, Md., USA) using the total RNA extraction+DNAse protocol. RNA was then reverse-transcribed to cDNA using iScript (Bio-Rad, Hercules, Calif., USA). cDNA was then used for real-time PCR analysis using iTaq Sybergreen (BioRad). Expression of Atoh1, Hes5, Hes1, Myosin7a genes was evaluated using CFX96 or CFX384 (Bio-Rad). HPRT1 was used as a reference gene. Analysis was done using Microsoft® Excel® and CBIS (ChemInnovation Software, Inc., San Diego, Calif., USA). […]

`C[C@H](OC(=O)NCC(F)(F)C(F)(F)F)C(=O)N[C@@H]1C(=O)Nc2ccccc2-c2ccccc21` [Compound I, (2,2,3,3,3-pentafluoropropyl)-carbamic acid (S)-1-((S)-6-oxo-6,7-dihydro-5H-dibenzo[b,d]azepin-7-ylcarbamoyl) ethyl ester]: the IC50 (commonly the point on the concentration scale where inhibition reaches its midpoint) amounted to 242 nM.
